Test results from PubChem BioAssay (NCI).
“And” between values parts separate entries of the source, which are not always exact repeats. Equal values may be shown once.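 The compound was tested at five concentrations on cells cultured in 96-well plates, with a 48-hour exposure period. The concentration for 50% growth inhibition is given as GI50. At the TGI there is no net growth.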

What was measured:
Assay in all cases: DTP human tumour cell line panel, 48 h
SN12C renal = tested on: SN12C renal
SR leukemia = tested on: SR leukemia
UACC-62 melanoma = tested on: UACC-62 melanoma
SF-539 CNS = tested on: SF-539 CNS
SK-MEL-5 melanoma = tested on: SK-MEL-5 melanoma
786-0 renal = tested on: 786-0 renal
HCT-116 colon = tested on: HCT-116 colon
NCI/ADR-RES ovarian = tested on: NCI/ADR-RES ovarian
HCT-15 colon = tested on: HCT-15 colon
SNB-75 CNS = tested on: SNB-75 CNS

Row | SMILES | GI50 (SN12C renal) [µM] | TGI (SN12C renal) | GI50 (SR leukemia) [µM] | TGI (SR leukemia) | GI50 (UACC-62 melanoma) [µM] | TGI (UACC-62 melanoma) | GI50 (SF-539 CNS) [µM] | TGI (SF-539 CNS) | GI50 (SK-MEL-5 melanoma) [µM] | TGI (SK-MEL-5 melanoma) | GI50 (786-0 renal) [µM] | TGI (786-0 renal) | GI50 (HCT-116 colon) | TGI (HCT-116 colon) | GI50 (NCI/ADR-RES ovarian) [µM] | GI50 (HCT-15 colon) [µM] | TGI (HCT-15 colon) | GI50 (SNB-75 CNS) [µM] | TGI (SNB-75 CNS) | TGI (NCI/ADR-RES ovarian) [µM]
1 | COC(=O)N[C@H]1CCc2c(Br)c(OC)c(OC)c(OC)c2-c2ccc(SC)c(=O)cc21 | < 0.01 | 25.5 µM | < 0.01 | 22.4 µM | < 0.01 | 18 µM | < 0.01 | < 0.01 µM | < 0.01 | 0.0182 µM | < 0.0163 | 24.8 µM | < 0.01 µM | 11.5 µM | 0.0179 | < 0.01 | 11.6 µM | < 0.01 | 20.9 µM | –
2 | CN1CCN(CN2C(=O)C3C4C=CC(C3C2=O)C2C3C(=O)N(CN5CCN(C)CC5)C(=O)C3C42)CC1 (configuration not stated) | – | 43.7 µM and 41.9 µM and 52.8 µM | – | 41.6 µM and 36.2 µM | – | 43.3 µM and 37.1 µM and 58.7 µM | – | 44.4 µM and 45.4 µM and 49.1 µM | – | 31 µM and > 58.5 µM and 68.7 µM | – | 34.3 µM and 40.3 µM and 36 µM | – | 33.4 µM and 36.4 µM and 27.3 µM | – | – | 34.8 µM and 42.1 µM and 30.3 µM | – | 79.8 µM and 72.9 µM and 92.1 µM | 64.5
3 | O=C(CCCCCCSc1nc(-c2ccccc2)cc(-c2ccc(Cl)cc2)n1)NO | 2.14 | 6.35 µM | 0.416 | 4.67 µM | 1.37 | 3.5 µM | 1.84 | 5.31 µM | 1.69 | 3.93 µM | 2.22 | 6.92 µM | 1.14 µM | 12.4 µM | 0.596 | 2.27 | 14 µM | 1.95 | 13.7 µM | 8.84
4 | CNC(=O)c1cc(OC2CCC(NC(=O)Nc3ccc(Cl)c(C(F)(F)F)c3)CC2)ccn1 (configuration not stated) | 6.2 | 22.1 µM | 4.42 | 32.7 µM | 5.41 | 19.4 µM | 12 | 29.6 µM | 3.07 | 10.9 µM | 8.34 | 25 µM | 4.35 µM | 16.6 µM | 5.67 | 6.17 | 23.6 µM | 16 | 38.9 µM | 44.3
5 | Cc1ccc(CNc2c3ccccc3nc3ccccc23)cc1 | 2.6 | 11.1 µM | 1.56 | 6.22 µM | 1.75 | 4.1 µM | 1.57 | 3.01 µM | 1.66 | 3.06 µM | 1.95 | 4.26 µM | 0.88 µM | 6.6 µM | 1.74 | 1.8 | 4.42 µM | 0.402 | 6.8 µM | 5.35
6 | COc1cc(/C(C#N)=C/c2ccc3c(c2OC)OCO3)cc2c1OCO2 | 0.695 | > 100 µM | 0.0244 | 5.37 µM | 0.0531 | 22.3 µM | 0.0964 | 2.29 µM | 0.0546 | > 46.4 µM | 0.2 | 21.5 µM | 0.0492 µM | > 35.7 µM | 0.0346 | 0.0748 | > 100 µM | 0.0878 | 3.42 µM | 0.381
7 | COc1ccc(N=C2CSc3nnc(-c4cc(F)c(Cl)cc4Cl)n3N2)cc1 | 2.61 | 14.4 µM | 0.33 | 0.799 µM | 0.576 | 23.2 µM | 1.05 | 2.63 µM | 1.28 | 11.1 µM | 1.04 | 4 µM | 0.43 µM | 1.96 µM | 2.96 | 1.03 | 17.2 µM | 0.355 | 1.58 µM | > 100
8 | O=c1oc2cc(OS(=O)(=O)c3ccc(F)cc3)ccc2c2c1CCCCC2 | > 100 | > 100 µM | > 100 | > 100 µM | – | – | > 100 | > 100 µM | 5.69 | > 100 µM | > 100 | > 100 µM | 6.24 µM | > 100 µM | > 100 | – | – | 19.6 | > 100 µM | > 100
9 | CCN(CC)CCOc1nc2ccc(OC)cc2c2c1-c1ccc(OC)cc1C2=O | 0.531 | 2.06 µM | 0.344 | 1.69 µM | 2.76 | 7.65 µM | 1.24 | 2.95 µM | 1.57 | 2.94 µM | 1.39 | 3.11 µM | 0.368 µM | 1.64 µM | 0.848 | 0.584 | 2.27 µM | 1.36 | 5.4 µM | 2.85
10 | COc1ccc(-c2nn3ncccc3c2-c2ccnc(Nc3ccc(Cl)c(C(F)(F)F)c3)n2)cc1 | 9.54 | > 25 µM | 17.6 | > 25 µM | 9.36 | > 25 µM | > 18.9 | > 25 µM | 7.16 | > 22 µM | 11 | > 25 µM | 8.01 µM | > 25 µM | 7.62 | 9.97 | > 25 µM | > 13.8 | > 25 µM | > 25
11 | CS(=O)(=O)CCNCc1nc(-c2ccc3ncnc(Nc4ccc(F)c(Cl)c4)c3c2)cs1 | 15.6 | > 25 µM | > 14 | > 22.2 µM | 17.6 | > 25 µM | > 25 | > 25 µM | 11.5 | > 25 µM | 22.9 | > 25 µM | > 23.9 µM | > 25 µM | 13.9 | 17.5 | > 25 µM | > 18.3 | > 25 µM | > 25
12 | Cc1c2c(nn1-c1ccc(S(=O)(=O)NC(=S)Nc3ccccc3)cc1)-c1ccccc1CC2 | > 50 | > 50 µM | > 50 | > 50 µM | > 50 | > 50 µM | > 50 | > 50 µM | > 50 | > 50 µM | 26.4 | > 50 µM | 18.2 µM | > 50 µM | > 50 | 38.8 | > 50 µM | > 50 | > 50 µM | > 50
13 | N#Cc1cn(C2OC(CO)C(O)C2O)c2ncnc(N)c12 (configuration not stated) | < 0.0119 | – | – | > 100 µM | < 0.0136 | 0.156 µM and 0.0603 µM and 0.115 µM | – | – | 0.0416 | 0.109 µM | – | > 100 µM | 0.0264 µM and < 0.01 µM | > 100 µM | 0.0459 | < 0.0117 | – | 0.232 | – | –
